Holding throughout (assay): stopped-flow CO2 hydration assay
Type in all cases: biochemical

One assay addresses T1, hCA I (Homo sapiens, UniProt P00915).
T1 construct: gene CA1; recombinant, obtained in-house; cytosolic
An excerpt: stopped-flow CO2 hydration assay on hCA I

The next assay has as its target T2, hCA IV (Homo sapiens, UniProt P22748).
T2 construct: gene CA4; recombinant, obtained in-house
The source says: stopped-flow CO2 hydration assay on hCA IV

Another assay has as its target T3, hCA II (Homo sapiens, UniProt P00918).
T3 construct: gene CA2; recombinant, obtained in-house; cytosolic
The source says: stopped-flow CO2 hydration assay on hCA II

Results on twelve molecules are retold here after PMC6151984, “Novel Sulfamide-Containing Compounds as Selective Carbonic Anhydrase I Inhibitors” (Molecules : A Journal of Synthetic Chemistry and Natural …, 2017).

Molecules are shown by their SMILES.

By Ki is commonly meant the dissociation constant of the complex between target and ligand, obtained from inhibition or displacement. Low readings indicate tighter binding, high ones weaker binding.

T2 sequence (P22748 19-284): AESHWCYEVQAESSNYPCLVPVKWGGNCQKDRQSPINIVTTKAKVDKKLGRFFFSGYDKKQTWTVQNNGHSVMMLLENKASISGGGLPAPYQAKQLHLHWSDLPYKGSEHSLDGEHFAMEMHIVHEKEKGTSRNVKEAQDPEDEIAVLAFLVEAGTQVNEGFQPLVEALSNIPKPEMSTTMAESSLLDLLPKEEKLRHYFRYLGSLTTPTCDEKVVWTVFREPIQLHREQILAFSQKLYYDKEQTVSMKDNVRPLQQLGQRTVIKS
T1 sequence (P00915 2-261): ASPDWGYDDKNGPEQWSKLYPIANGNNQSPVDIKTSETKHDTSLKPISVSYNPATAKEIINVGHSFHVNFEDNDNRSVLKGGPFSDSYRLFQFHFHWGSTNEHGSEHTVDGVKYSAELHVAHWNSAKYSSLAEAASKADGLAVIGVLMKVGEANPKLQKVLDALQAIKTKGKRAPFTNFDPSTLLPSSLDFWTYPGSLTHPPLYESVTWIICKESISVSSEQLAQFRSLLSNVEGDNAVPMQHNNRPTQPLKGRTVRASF

As for `NS(=O)(=O)Nc1ccccc1S(=O)(=O)NCCC(=O)N1CCN(C(c2ccccc2)c2ccccc2)CC1` [6a, N-(3-(4-Benzhydrylpiperazin-1-yl)-3-oxopropyl)-2-(sulfamoylamino)benzenesulfonamide], the Ki at hCA I stood at 286 nM; on hCA IV it was 151 nM; at hCA II, 473 nM.
Taken in the same sequence, the figures for `NS(=O)(=O)Nc1cccc(S(=O)(=O)NCCC(=O)N2CCN(C(c3ccccc3)c3ccccc3)CC2)c1` [6b, N-(3-(4-Benzhydrylpiperazin-1-yl)-3-oxopropyl)-3-(sulfamoylamino)benzenesulfonamide] were 83.1 nM, 2360 nM and 419 nM.
Taken in the same sequence, the figures for `NS(=O)(=O)Nc1ccc(S(=O)(=O)NCCC(=O)N2CCN(C(c3ccccc3)c3ccccc3)CC2)cc1` [6c, N-(3-(4-Benzhydrylpiperazin-1-yl)-3-oxopropyl)-4-(sulfamoylamino)benzenesulfonamide] were 75.4 nM, 124 nM and 439 nM.
The corresponding values for `NS(=O)(=O)Nc1ccccc1S(=O)(=O)NCCC(=O)N1CCN(C(c2ccc(F)cc2)c2ccc(F)cc2)CC1` [6d, N-(3-(4-(bis(4-Fluorophenyl)methyl)piperazin-1-yl)-3-oxopropyl)-2(sulfamoylamino)benzenesulfonamide] are 660 nM, 117 nM and 189 nM.
`NS(=O)(=O)Nc1cccc(S(=O)(=O)NCCC(=O)N2CCN(C(c3ccc(F)cc3)c3ccc(F)cc3)CC2)c1` [6e, N-(3-(4-(bis(4-Fluorophenyl)methyl)piperazin-1-yl)-3-oxopropyl)-3(sulfamoylamino)benzenesulfonamide]: the values for the Ki at hCA I, on hCA IV and on hCA II were 94 nM, 423 nM and 165 nM, respectively.
The corresponding values for `NS(=O)(=O)Nc1ccc(S(=O)(=O)NCCC(=O)N2CCN(C(c3ccc(F)cc3)c3ccc(F)cc3)CC2)cc1` [6f, N-(3-(4-(bis(4-Fluorophenyl)methyl)piperazin-1-yl)-3-oxopropyl)-4-(sulfamoylamino)benzenesulfonamide] are 63.2 nM, 202 nM and 406 nM.
Taken in the same sequence, the figures for `NS(=O)(=O)Nc1ccccc1S(=O)(=O)N1CCCC(C(=O)N2CCN(C(c3ccccc3)c3ccccc3)CC2)C1` (stereo not drawn) [6g, (1-((2-Sulfamoylaminophenyl)sulfonyl)piperidin-3-yl)(4-benzhydrylpiperazin-1-yl)methanone] were 605 nM, 314 nM and 89.8 nM.
Regarding `NS(=O)(=O)Nc1cccc(S(=O)(=O)N2CCCC(C(=O)N3CCN(C(c4ccccc4)c4ccccc4)CC3)C2)c1` (stereo not drawn) [6h, 4(1-((3-Sulfamoylaminophenyl)sulfonyl)piperidin-3-yl)(4-benzhydrylpiperazin-1-yl)methanone], the Ki at hCA I worked out at 71.4 nM; at hCA IV, 1620 nM; at hCA II it was 911 nM.
Regarding `NS(=O)(=O)Nc1ccc(S(=O)(=O)N2CCCC(C(=O)N3CCN(C(c4ccccc4)c4ccccc4)CC3)C2)cc1` (stereo not drawn) [6i, (1-((4-Sulfamoylaminophenyl)sulfonyl)piperidin-3-yl)(4-benzhydrylpiperazin-1-yl)methanone], the figures for the Ki on hCA I, on hCA IV and at hCA II were 153 nM, 364 nM and 455 nM, respectively.
The corresponding values for `NS(=O)(=O)Nc1ccccc1S(=O)(=O)N1CCCC(C(=O)N2CCN(C(c3ccc(F)cc3)c3ccc(F)cc3)CC2)C1` (stereo not drawn) [6j, (1-((2-Sulfamoylaminophenyl)sulfonyl)piperidin-3-yl)(4-(bis(4-fluorophenyl)methyl)piperazin-1-yl)methanone] are 2750 nM, 1500 nM and 6460 nM.
Taken in the same sequence, the figures for `NS(=O)(=O)Nc1cccc(S(=O)(=O)N2CCCC(C(=O)N3CCN(C(c4ccc(F)cc4)c4ccc(F)cc4)CC3)C2)c1` (stereo not drawn) [6k, (1-((3-Sulfamoylaminophenyl)sulfonyl)piperidin-3-yl)(4-(bis(4-fluorophenyl)methyl)piperazin-1-yl)methanone] were 45.8 nM, 1380 nM and 753 nM.
Taken in the same sequence, the figures for `NS(=O)(=O)Nc1ccc(S(=O)(=O)N2CCCC(C(=O)N3CCN(C(c4ccc(F)cc4)c4ccc(F)cc4)CC3)C2)cc1` (stereo not drawn) [6l, (1-((4-Sulfamoylaminophenyl)sulfonyl)piperidin-3-yl)(4-(bis(4-fluorophenyl)methyl)piperazin-1-yl)methanone] were 326 nM, 467 nM and 786 nM.
